Results taken from patent US20070254882A1, “Sulfamide Derivatives and Pharmaceutical Composition for Upregulation of Lipid Metabolism Comprising Same” (CRYSTAL GENOMICS, INC., priority 2004, published 2007).

Biological target: T1, human PPAR α (Homo sapiens, UniProt Q07869)
T1 construct: expressed in transfected cells; host or cells: HepG2 (ATCC HB-8065) or 293T cells (ATCC CRL-1573)
T1 sequence (Q07869 239-466 limits assumed): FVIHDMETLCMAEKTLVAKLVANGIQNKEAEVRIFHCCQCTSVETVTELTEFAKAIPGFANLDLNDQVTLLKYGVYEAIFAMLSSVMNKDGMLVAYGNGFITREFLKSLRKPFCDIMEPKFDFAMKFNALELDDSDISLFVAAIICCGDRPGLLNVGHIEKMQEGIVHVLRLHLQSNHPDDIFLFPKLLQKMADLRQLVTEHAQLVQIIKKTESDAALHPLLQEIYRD
Test: Exogeneous PPAR α agonist assay (GAL4 DNA binding domain/PPAR α ligand binding domain, luciferase) in 293T cells
Assay type: cell-based
Design: scale not given here
Conditions: 25 μM compound, 48 hours, luciferase activity increase relative to the control
Protocol: Step 1) Exogeneous PPAR α Agonist Assay
Cross-activation assay of the compounds of Examples 1 to 134 against human PPAR α was carried out using a DNA construct of PPAR α including its ligand binding domain and GAL4 DNA binding domain (Sher et al., Biochemistry 32, 5598-5604, 1993) to analyze whether any of the compounds binds to the ligand binding domain of PPAR α expressed by the construct to affect the PPAR α activity. When the GAL4 DNA binding domainm which is fused with PPAR α ligand binding domain, binds to UAS (upstream activation sequence) of firefly-luciferase, the luciferase is expressed. Therefore, the effect of each of the compounds of Examples on PPAR α activation can be evaluated by analyzing the activation of luciferase.
Specifically, 2×10^4 of HepG2 (ATCC HB-8065) or 293T cells (ATCC CRL-1573) were aliquotted into each well of a 96-well plate and cultured for overnight at 37° C. in a CO2 incubator (culture condition: DMEM, 10% FBS and 1% antibiotics).
The transformation of PPAR α DNA was traced as follows. First, a mixture of the following ingredients in amounts per well; Solution A (Promega) containing 50 ng of full length human PPAR α DNA, 50 ng of firefly-luciferase construct, 5 ng of Renilla-luciferase construct, 1.0 μl of PLUS™ reagent, and 8.3 μl of a serum-free medium containing no antibiotics; was prepared and kept at room temperature for 15 min. Solution B, which contained 0.5 μl of Lipofectamine™ reagent and 9.5 μl of serum-free medium without antibiotics per well, and Solution C, which contained 50 μl of serum-free medium per well), were prepared. Solutions A, B and C were mixed together to prepare lipofectamin-DNA complex, and the mixture was kept at room temperature for 15 min. Single layer of cells on each well of a 96-well plate were washed with serum-free DMEM, 70 μl of lipofectamine-DNA complex prepared above was added thereto, the plate was incubated at 37° C. in a 5% CO2 incubator for 3 hours to transform the cells, and […] of a diluted solution of each of the compounds of Examples 1 to 134 per well was added to each well to a final concentration 25 μM, and incubated at 37° C. in a CO2 incubator for 48 hours. Then, the medium was removed, 50 μl of passive lysis buffer (Promega) was added thereto, and the plate was shook at room temperature for 20 min to lysis cells. 40 μl of Luciferase Assay reagent of Dual Luciferase Kit […] per 20 μl of cell lysis buffer was added to the plate, followed by reacting at 20° C. for 8 seconds, and 40 μl of Stop & Glo reagent (Promega) as a stop solution was added thereto to quench the reaction. The luminescence intensities of F-luciferase and R-luciferase were measured with MicroLumat Plus (Berthord Technology).

Row | SMILES | Activity at 25 μM Step 1 293T cell
1 | Cc1oc(-c2ccccc2)nc1COc1ccc(CN(CC(=O)O)S(=O)(=O)N(C)C)cc1 [Example 38, [N—(N,N-dimethylamino)sulfonyl-N-[4-[(2-phenyl-5-methyloxazol-4-yl)methoxy]benzyl]amino]acetic acid] | 2
2 | Cc1ccc(-c2nc(COc3ccc(CN(CC(=O)O)S(=O)(=O)N4CCN(C)CC4)cc3)c(C)o2)cc1 [Example 43, [N-(4-methyl-1-piperazinyl)sulfonyl-N-[4-[[2-(4-methylphenyl)-5-methyloxazol-4-yl]methoxy]benzyl]amino]acetic acid] | 2
3 | Cc1oc(-c2cccs2)nc1COc1cccc(CN(CC(=O)O)S(=O)(=O)N(C)C)c1 [Example 12, [N—(N,N-dimethylamino)sulfonyl-N-[3-[[2-(thiophen-2-yl)-5-methyloxazol-4-yl]methoxy]benzyl]amino]acetic acid] | 2
4 | Cc1oc(-c2ccccc2)nc1COc1cccc(CN(CC(=O)O)S(=O)(=O)N(C)C)c1 [Example 3, [N—[(N,N-dimethylamino)sulfonyl]-N-[3-[(2-phenyl-5-methyloxazol-4-yl)methoxy]benzyl]amino]acetic acid] | 2
5 | Cc1ccc(-c2nc(COc3cccc(CN(CC(=O)O)S(=O)(=O)N(C)c4ccc(Cl)cc4)c3)c(C)o2)cc1 [Example 19, [N—[[N-methyl-N-(4-chlorophenyl)]amino]sulfonyl-N-[3-[[2-(4-methylphenyl)-5-methyloxazol-4-yl]methoxy]benzyl]amino]acetic acid] | 2
6 | Cc1ccc(-c2nc(COc3cccc(CN(CC(=O)O)S(=O)(=O)N4CCCc5ccccc54)c3)c(C)o2)cc1 [Example 35, [N-(1,2,3,4-tetrahydroquinolinyl)sulfonyl-N-[3-[[2-(4-methylphenyl)-5-methyloxazol-4-yl]methoxy]benzyl]amino]acetic acid] | 2
7 | Cc1ccc(-c2nc(COc3ccc(CN(CC(=O)O)S(=O)(=O)N4CCOCC4)cc3)c(C)o2)cc1 [Example 44, [N-(morpholinyl)sulfonyl-N-[4-[[2-(4-methylphenyl)-5-methyloxazol-4-yl]methoxy]benzyl]amino]acetic acid] | 3
8 | Cc1ccc(-c2nc(COc3cccc(CN(CC(=O)O)S(=O)(=O)N4CCc5ccccc54)c3)c(C)o2)cc1 [Example 31, [N-(indolinyl)sulfonyl-N-[3-[[2-(4-methylphenyl)-5-methyloxazol-4-yl]methoxy]benzyl]amino]acetic acid] | 3
9 | Cc1ccc(-c2nc(COc3cccc(CN(CC(=O)O)S(=O)(=O)N(C)C)c3)c(C)o2)cc1 [Example 4, [N—[(N,N-dimethylamino)sulfonyl]-N-[3-[[2-(4-methylphenyl)-5-methyloxazol-4-yl]methoxy]benzyl]amino]acetic acid] | 3
10 | Cc1oc(-c2cccs2)nc1COc1ccc(CN(CC(=O)O)S(=O)(=O)N(C)c2ccccc2)cc1 [Example 48, [N—[(N-methyl-N-phenyl)amino]sulfonyl-N-[4-[[2-(thiophen-2-yl)-5-methyloxazol-4-yl]methoxy]benzyl]amino]acetic acid] | 2
11 | Cc1oc(-c2ccc(C(F)(F)F)cc2)nc1COc1cccc(CN(CC(=O)O)S(=O)(=O)N2CCCC2)c1 [Example 25, [N-(pyrrolidinyl)sulfonyl-N-[3-[[2-(4-trifluoromethylphenyl)-5-methyloxazol-4-yl]methoxy]benzyl]amino]acetic acid] | 2
12 | Cc1oc(-c2ccc(C(F)(F)F)cc2)nc1COc1cccc(CN(CC(=O)O)S(=O)(=O)N2CCCc3ccccc32)c1 [Example 36, [N-(1,2,3,4-tetraquinolinyl)sulfonyl-N-[3-[[2-(4-trifluoromethylphenyl)-5-methyloxazol-4-yl]methoxy]benzyl]amino]acetic acid] | 2

Next, values leading:

Row | Activity at 25 μM Step 1 293T cell | SMILES
13 | 3 | Cc1oc(-c2ccc(C(F)(F)F)cc2)nc1COc1ccc(CN(CC(=O)O)S(=O)(=O)N2CCCc3ccccc32)cc1 [Example 59, [N-(1,2,3,4-tetrahydroquinolinyl)sulfonyl-N-[4-[[2-(4-trifluoromethylphenyl)-5-methyloxazol-4-yl]methoxy]benzyl]amino]acetic acid]
14 | 1 | Cc1oc(-c2ccc(C(F)(F)F)cc2)nc1CCOc1cccc(CN(CC(=O)O)S(=O)(=O)N2CCOCC2)c1 [Example 87, [N-(morpholinyl)sulfonyl-N-[3-[2-[2-(4-trifluoromethylphenyl)-5-methyloxazol-4-yl]ethoxy]benzyl]amino]acetic acid]
15 | 2 | Cc1oc(-c2cccs2)nc1CCOc1ccc(CN(CC(=O)O)S(=O)(=O)N(C)c2ccccc2)cc1 [Example 108]
16 | 2 | Cc1ccc(-c2nc(CCOc3ccc(CN(CC(=O)O)S(=O)(=O)N4CCCc5ccccc54)cc3)c(C)o2)cc1 [Example 121, [N-(1,2,3,4-tetrahydroquinolinyl)sulfonyl-N-[4-[2-[2-(4-methylphenyl)-5-methyloxazol-4-yl]ethoxy]benzyl]amino]acetic acid]
17 | 2 | Cc1oc(-c2cccs2)nc1CCOc1ccc(CN(CC(=O)O)S(=O)(=O)N(C)c2ccc(Cl)cc2)cc1 [Example 115, [N—[[N-methyl-N-(4-chlorophenyl)]amino]sulfonyl-N-[4-[2-[2-(thiophen-2-yl)-5-methyloxazol-4-yl]ethoxy]benzyl]amino]acetic acid]
18 | 2 | Cc1ccc(-c2nc(COc3ccc(CN(CC(=O)O)S(=O)(=O)N(C)c4ccc(Cl)cc4)cc3)c(C)o2)cc1 [Example 50, [N—[[N-methyl-N-(4-chlorophenyl)]amino]sulfonyl-N-[4-[[2-(4-methylphenyl)-5-methyloxazol-4-yl]methoxy]benzyl]amino]acetic acid]
19 | 2 | Cc1ccc(-c2nc(CCOc3ccc(CN(CC(=O)O)S(=O)(=O)N(C)c4ccc(Cl)cc4)cc3)c(C)o2)cc1 [Example 110, [N—[[N-methyl-N-(4-chlorophenyl)]amino]sulfonyl-N-[4-[2-[2-(4-methylphenyl)-5-methyloxazol-4-yl]ethoxy]benzyl]amino]acetic acid]
20 | 1 | Cc1oc(-c2ccc(C(F)(F)F)cc2)nc1CCOc1cccc(CN(CC(=O)O)S(=O)(=O)N2CCN(C)CC2)c1 [Example 89, [N-(4-methyl-1-piperazinyl)sulfonyl-N-[3-[2-[2-(4-trifluoromethylphenyl)-5-methyloxazol-4-yl]ethoxy]benzyl]amino]acetic acid]
21 | 4 | Cc1ccc(-c2nc(COc3ccc(CN(CC(=O)O)S(=O)(=O)N4CCCc5ccccc54)cc3)c(C)o2)cc1 [Example 58, [N-(1,2,3,4-tetraquinolinyl)sulfonyl-N-[4-[[2-(4-methylphenyl)-5-methyloxazol-4-yl]methoxy]benzyl]amino]acetic acid]
22 | 1 | Cc1oc(-c2cccs2)nc1CCOc1ccc(CN(CC(=O)O)S(=O)(=O)N(C)C)cc1 [Example 104, [N—(N,N-dimethylamino)sulfonyl-N-[4-[2-[2-(thiophen-2-yl)-5-methyloxazol-4-yl]ethoxy]benzyl]amino]acetic acid]
23 | 2 | Cc1ccc(-c2nc(CCOc3cccc(CN(CC(=O)O)S(=O)(=O)N4CCOCC4)c3)c(C)o2)cc1 [Example 86, [N-(morpholinyl)sulfonyl-N-[3-[2-[2-(4-methylphenyl)-5-methyloxazol-4-yl]ethoxy]benzyl]amino]acetic acid]
